Molecular target: Pol Theta (1-894) (Homo sapiens (Human), UniProt O75417)
Assay: Biochemical Pol Theta (1-894) ATPase IC50 assay (ADP-Glo, ssDNA substrate)
Conditions: ADP-Glo assay with ssDNA substrate, room temperature
How it was run: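 His-tagged human Pol Theta 1-894 from Sf9 baculovirus cells, 2× enzyme solution at 12.5 nM, assayed with ssDNA substrate at room temperature in 40 mM Tris pH 7.5, 20 mM MgCl2, 1 mM DTT, 0.01% BSA, 0.05% Tween-20.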

Chain of Pol Theta (1-894) (O75417 1-894): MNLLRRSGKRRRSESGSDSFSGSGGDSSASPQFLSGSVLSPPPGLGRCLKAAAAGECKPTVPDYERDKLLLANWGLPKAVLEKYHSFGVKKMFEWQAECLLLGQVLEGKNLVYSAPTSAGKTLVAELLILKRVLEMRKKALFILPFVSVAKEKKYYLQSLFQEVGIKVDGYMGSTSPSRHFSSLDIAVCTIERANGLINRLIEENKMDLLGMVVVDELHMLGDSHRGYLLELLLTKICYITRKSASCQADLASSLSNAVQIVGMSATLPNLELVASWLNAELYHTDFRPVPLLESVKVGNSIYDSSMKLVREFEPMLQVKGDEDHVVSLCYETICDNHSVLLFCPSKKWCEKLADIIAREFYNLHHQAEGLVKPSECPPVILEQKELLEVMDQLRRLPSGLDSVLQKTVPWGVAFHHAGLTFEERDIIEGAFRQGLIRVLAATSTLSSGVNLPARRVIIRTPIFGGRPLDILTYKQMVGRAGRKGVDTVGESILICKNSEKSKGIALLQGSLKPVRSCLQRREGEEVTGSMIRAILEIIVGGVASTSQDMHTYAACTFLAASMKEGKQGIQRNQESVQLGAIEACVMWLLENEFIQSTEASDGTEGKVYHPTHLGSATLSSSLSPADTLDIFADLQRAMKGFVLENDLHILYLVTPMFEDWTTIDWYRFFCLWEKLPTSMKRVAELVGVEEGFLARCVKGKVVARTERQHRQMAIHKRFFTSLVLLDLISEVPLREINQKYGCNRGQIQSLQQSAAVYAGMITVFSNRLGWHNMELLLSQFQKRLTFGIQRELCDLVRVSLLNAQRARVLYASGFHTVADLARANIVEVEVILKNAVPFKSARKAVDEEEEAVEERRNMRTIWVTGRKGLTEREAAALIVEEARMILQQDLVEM

| SMILES | IC50 [nM] |
| --- | --- |
| CCNC(=O)c1ccc(-c2ccc3nc(NC(=O)c4cnncc4-c4ccccc4OC)sc3n2)cc1 [Example 108, N-(5-(4-(ethylcarbamoyl)phenyl)thiazolo[5,4-b]pyridin-2-yl)-5-(2-methoxyphenyl)pyridazine-4-carboxamide] | 19 |
| COc1ccc(C#N)cc1-c1cc(CO)ncc1C(=O)Nc1nc2ccc(-c3ccc(C#N)cc3)nc2s1 [Example 109, 4-(5-cyano-2-methoxyphenyl)-N-(5-(4-cyanophenyl)thiazolo[5,4-b]pyridin-2-yl)-6-(hydroxymethyl)nicotinamide] | 4.7 |
| COc1ccc(C#N)cc1-c1cc(C)ncc1C(=O)Nc1nc2ccc(-c3ccc(C(N)=O)c(C)c3)nc2s1 [Example 110, N-(5-(4-carbamoyl-3-methylphenyl)thiazolo[5,4-b]pyridin-2-yl)-4-(5-cyano-2-methoxyphenyl)-6-methylnicotinamide] | 5.8 |
| COc1ccccc1-c1cnncc1C(=O)Nc1nc2ccc(-c3ccc(NC(=O)CO)cc3)nc2s1 [Example 111, N-(5-(4-(2-hydroxyacetamido)phenyl)thiazolo[5,4-b]pyridin-2-yl)-5-(2-methoxyphenyl)pyridazine-4-carboxamide] | 11 |
| COc1ccccc1-c1cnncc1C(=O)Nc1nc2ccc(C(=O)NCCO)nc2s1 [Example 112, N-(2-hydroxyethyl)-2-(5-(2-methoxyphenyl)pyridazine-4-carboxamido)thiazolo[5,4-b]pyridine-5-carboxamide] | 60 |
| COc1ccccc1-c1cnncc1C(=O)Nc1nc2ccc(C(=O)NC3CCOCC3)nc2s1 [Example 113, 2-(5-(2-methoxyphenyl)pyridazine-4-carboxamido)-N-(tetrahydro-2H-pyran-4-yl)thiazolo[5,4-b]pyridine-5-carboxamide] | 167 |
| COc1ccccc1-c1cnncc1C(=O)Nc1nc2ccc(OC3CCCC3)nc2s1 [Example 114, N-(5-(cyclopentyloxy)thiazolo[5,4-b]pyridin-2-yl)-5-(2-methoxyphenyl)pyridazine-4-carboxamide] | 99 |
| COc1ccc(C#N)cc1-c1cc(C)ncc1C(=O)Nc1nc2ccc(-c3ccc(CNC(C)=O)cc3)nc2s1 [Example 115, N-(5-(4-(acetamidomethyl)phenyl)thiazolo[5,4-b]pyridin-2-yl)-4-(5-cyano-2-methoxyphenyl)-6-methylnicotinamide] | 7.1 |
| COc1ccc(C#N)cc1-c1cc(C)ncc1C(=O)Nc1nc2ccc(-c3ccc(CC#N)cc3)nc2s1 [Example 116, 4-(5-cyano-2-methoxyphenyl)-N-(5-(4-(cyanomethyl)phenyl)thiazolo[5,4-b]pyridin-2-yl)-6-methylnicotinamide] | 5.6 |
| COc1ccccc1-c1cnncc1C(=O)Nc1nc2ccc(-c3ccc(Cl)cc3Cl)nc2s1 [Example 117, N-(5-(2,4-dichlorophenyl)thiazolo[5,4-b]pyridin-2-yl)-5-(2-methoxyphenyl)pyridazine-4-carboxamide] | 12 |
| COc1ccccc1-c1cnncc1C(=O)Nc1nc2ccc(OCC3CCCO3)nc2s1 (stereo not drawn) [Example 118, 5-(2-methoxyphenyl)-N-(5-((tetrahydrofuran-2-yl)methoxy)thiazolo[5,4-b]pyridin-2-yl)pyridazine-4-carboxamide] | 17 |
| COc1cc(C#N)ccc1-c1ccc2nc(NC(=O)c3cnncc3-c3ccccc3OC)sc2n1 [Example 119, N-(5-(4-cyano-2-methoxyphenyl)thiazolo[5,4-b]pyridin-2-yl)-5-(2-methoxyphenyl)pyridazine-4-carboxamide] | 5.2 |
| Cc1cc(-c2ccc(=O)n(C)c2C)c(C(=O)Nc2nc3ccc(-c4ccc(C#N)cc4)nc3s2)cn1 [Example 120, N-(5-(4-cyanophenyl)thiazolo[5,4-b]pyridin-2-yl)-1,2,6′-trimethyl-6-oxo-1,6-dihydro-[3,4′-bipyridine]-3′-carboxamide] | 7.9 |
| COc1ccccc1-c1cnncc1C(=O)Nc1nc2ccc(-c3ccc(C#N)cc3C)nc2s1 [Example 121, N-(5-(4-cyano-2-methylphenyl)thiazolo[5,4-b]pyridin-2-yl)-5-(2-methoxyphenyl)pyridazine-4-carboxamide] | 4.9 |
| COc1ccc(C#N)cc1-c1cc(C)ncc1C(=O)Nc1nc2ccc(-c3ccc(OCCO)cc3)nc2s1 [Example 122, 4-(5-cyano-2-methoxyphenyl)-N-(5-(4-(2-hydroxyethoxy)phenyl)thiazolo[5,4-b]pyridin-2-yl)-6-methylnicotinamide] | 14 |
| COCCOc1ccc(-c2ccc3nc(NC(=O)c4cnc(C)cc4-c4cc(C#N)ccc4OC)sc3n2)cc1 [Example 123, 4-(5-cyano-2-methoxyphenyl)-N-(5-(4-(2-methoxyethoxy)phenyl)thiazolo[5,4-b]pyridin-2-yl)-6-methylnicotinamide] | 27 |
| COc1ccccc1-c1cnncc1C(=O)Nc1nc2ccc(C(=O)N3CCOCC3)nc2s1 [Example 124, 5-(2-methoxyphenyl)-N-(5-(morpholine-4-carbonyl)thiazolo[5,4-b]pyridin-2-yl)pyridazine-4-carboxamide] | 44 |

| SMILES | IC50 [nM] |
| --- | --- |
| COc1ccccc1-c1cnncc1C(=O)Nc1nc2ccc(-c3ccc(Cl)c4c3cnn4C)nc2s1 [Example 125, N-(5-(7-chloro-1-methyl-1H-indazol-4-yl)thiazolo[5,4-b]pyridin-2-yl)-5-(2-methoxyphenyl)pyridazine-4-carboxamide] | 25 |
| COc1ccccc1-c1cnncc1C(=O)Nc1nc2ccc(-c3ccc(Cl)c4nn(C)cc34)nc2s1 [Example 126, N-(5-(7-chloro-2-methyl-2H-indazol-4-yl)thiazolo[5,4-b]pyridin-2-yl)-5-(2-methoxyphenyl)pyridazine-4-carboxamide] | 12 |
| COc1ccc(C#N)cc1-c1cc(C)ncc1C(=O)Nc1nc2ccc(C3CCOC3)nc2s1 (stereo not drawn) [Example 127, 4-(5-cyano-2-methoxyphenyl)-6-methyl-N-(5-(tetrahydrofuran-3-yl)thiazolo[5,4-b]pyridin-2-yl)nicotinamide] | 35 |
| COc1ccccc1-c1cnncc1C(=O)Nc1nc2ccc(-c3ccc(C#N)cc3F)nc2s1 [Example 128, N-(5-(4-cyano-2-fluorophenyl)thiazolo[5,4-b]pyridin-2-yl)-5-(2-methoxyphenyl)pyridazine-4-carboxamide] | 8.1 |
| COc1ccccc1-c1cnncc1C(=O)Nc1nc2ccc(Oc3ccc(Cl)c(C)c3)nc2s1 [Example 129, N-(5-(4-chloro-3-methylphenoxy)thiazolo[5,4-b]pyridin-2-yl)-5-(2-methoxyphenyl)pyridazine-4-carboxamide] | 23 |
| COc1ccccc1-c1cnncc1C(=O)Nc1nc2ccc(Oc3ccc(Cl)c(F)c3)nc2s1 [Example 130, N-(5-(4-chloro-3-fluorophenoxy)thiazolo[5,4-b]pyridin-2-yl)-5-(2-methoxyphenyl)pyridazine-4-carboxamide] | 35 |
| COc1cc(Oc2ccc3nc(NC(=O)c4cnncc4-c4ccccc4OC)sc3n2)ccc1Cl [Example 131, N-(5-(4-chloro-3-methoxyphenoxy)thiazolo[5,4-b]pyridin-2-yl)-5-(2-methoxyphenyl)pyridazine-4-carboxamide] | 14 |
| CCNC(=O)c1ccc(-c2ccc3nc(NC(=O)c4cnncc4-c4ccccc4OC)sc3n2)c(C)c1 [Example 132, N-(5-(4-(ethylcarbamoyl)-2-methylphenyl)thiazolo[5,4-b]pyridin-2-yl)-5-(2-methoxyphenyl)pyridazine-4-carboxamide] | 12 |
| COc1ccccc1-c1cnncc1C(=O)Nc1nc2ccc(-c3ccc(S(C)(=O)=O)cc3F)nc2s1 [Example 133, N-(5-(2-fluoro-4-(methylsulfonyl)phenyl)thiazolo[5,4-b]pyridin-2-yl)-5-(2-methoxyphenyl)pyridazine-4-carboxamide] | 11 |
| CNC(=O)c1ccc(-c2ccc3nc(NC(=O)c4cnncc4-c4ccccc4OC)sc3n2)c(C)c1 [Example 134, 5-(2-methoxyphenyl)-N-(5-(2-methyl-4-(methylcarbamoyl)phenyl)thiazolo[5,4-b]pyridin-2-yl)pyridazine-4-carboxamide] | 15 |
| COc1ccc(C#N)cc1-c1cc(C)ncc1C(=O)Nc1nc2ccc(-c3ccc(N4CCCS4(=O)=O)cc3)nc2s1 [Example 135, 4-(5-cyano-2-methoxyphenyl)-N-(5-(4-(1,1-dioxidoisothiazolidin-2-yl)phenyl)thiazolo[5,4-b]pyridin-2-yl)-6-methylnicotinamide] | 23 |
| COc1ccc(C#N)cc1-c1cc(C)ncc1C(=O)Nc1nc2ccc(-c3ccc(N(CCO)S(C)(=O)=O)cc3)nc2s1 [Example 136, 4-(5-cyano-2-methoxyphenyl)-N-(5-(4-(N-(2-hydroxyethyl)methylsulfonamido)phenyl)thiazolo[5,4-b]pyridin-2-yl)-6-methylnicotinamide] | 41 |
| COc1ccccc1-c1cnncc1C(=O)Nc1nc2ccc(C(=O)c3ccc(Cl)cc3)nc2s1 [Example 137, N-(5-(4-chlorobenzoyl)thiazolo[5,4-b]pyridin-2-yl)-5-(2-methoxyphenyl)pyridazine-4-carboxamide] | 54 |
| COc1ccccc1-c1cnncc1C(=O)Nc1nc2ccc(C(C)c3ccc(Cl)cc3)nc2s1 (stereo not drawn) [Example 138, N-(5-(1-(4-chlorophenyl)ethyl)thiazolo[5,4-b]pyridin-2-yl)-5-(2-methoxyphenyl)pyridazine-4-carboxamide] | 263 |
| COc1ccccc1-c1cnncc1C(=O)Nc1nc2ccc(-c3ccc(Cl)c(C)c3C)nc2s1 [Example 139, N-(5-(4-chloro-2,3-dimethylphenyl)thiazolo[5,4-b]pyridin-2-yl)-5-(2-methoxyphenyl)pyridazine-4-carboxamide] | 21 |
| COc1ccccc1-c1cnncc1C(=O)Nc1nc2ccc(-c3cc(C)c(NC(C)=O)c(C)c3)nc2s1 [Example 140, N-(5-(4-acetamido-3,5-dimethylphenyl)thiazolo[5,4-b]pyridin-2-yl)-5-(2-methoxyphenyl)pyridazine-4-carboxamide] | 7.7 |
